Results on 10 compounds are retold here after US6576638B1, “Use of substance P antagonists in the treatment of the adenocarcinomas” (Biopolis S.p.A., priority 1999, dated 2003).

Experiment [1] deals with PC-3 human prostatic cancer cell lines. Description: Vascular density quantification (CD31 immunohistochemistry) in orthotopic PC-3 prostate tumors in nude mice. Format: in vivo, male athymic nude mices. The settings on record: compared to control groups (L-703,606 also vs SP treated mice); p<0.05; 1 ng up to 1 mg; three up to 180 days. Here is the method:
(§1) For this studies has been used male athymic nude mices (Harlan). The mices were housed in laminar flow cabinet under pathogenic free conditions and used at 4-5 weeks of age.
(§2) The PC-3 human prostatic cancer cell lines (ECACC) were mantained in Minimum essential medium (GIBCO BRL) For in vivo studies, tumor cells in exponential growth phase were harvested by a 120 seconds treatment with tripsyn in 0.02% EDTA. After that the cells were resuspended in saline solution. 20 μl (10^5 cells) of saline solution was inoculated in nude mice prostate. The tumors were taken at different times (three up to 180 days) for analysis.
(§3) Animals were divided in groups (10 animals each one) and treated with different solutions:
(§4) physiological solution, -Sustance P (1 ng up to 1 mg), -L-703,606 (1 ng up to 1 mg), −L-703,606+Leuprolide Acetate (using dosages reported in table 1 and 2).
(§5) The treatments were made at different time (one at day until one at week). For different periods of time (three days up to 180 days).
Frozen sections of tumors have been fixed in Acetone, acetone/chloroform, acetone.
The presence of new blood vessels has been highlighted using the Rat anti-Mouse CD31 antibody, a Goat anti-Rat POX as a secondary antibody and DAB as a chromogen substrate. For quantification of blood vessels an image analysis system was employed.

The test system is the same in experiment [2]. Description: Tumoral mass weight of orthotopic PC-3 prostate tumors in nude mice. Format: in vivo, male athymic nude mices. Particulars: compared to either control groups or SP treated mice; p<0.05; from 3 up to 180 days. How it is done: as §1, §2, §3, §4, §5
The animals were maitained under observation for three up to 180 days. Autoptic examinations were performed in all animals and the tumoral mass weighed.

For experiment [3], the target named is T1, NK-1 receptor (Homo sapiens, UniProt P25103).
T1 construct: pA2>6.0 both in murine and human tissues; host or cells: human tissues (not specified)
T1 sequence (P25103 whole entry): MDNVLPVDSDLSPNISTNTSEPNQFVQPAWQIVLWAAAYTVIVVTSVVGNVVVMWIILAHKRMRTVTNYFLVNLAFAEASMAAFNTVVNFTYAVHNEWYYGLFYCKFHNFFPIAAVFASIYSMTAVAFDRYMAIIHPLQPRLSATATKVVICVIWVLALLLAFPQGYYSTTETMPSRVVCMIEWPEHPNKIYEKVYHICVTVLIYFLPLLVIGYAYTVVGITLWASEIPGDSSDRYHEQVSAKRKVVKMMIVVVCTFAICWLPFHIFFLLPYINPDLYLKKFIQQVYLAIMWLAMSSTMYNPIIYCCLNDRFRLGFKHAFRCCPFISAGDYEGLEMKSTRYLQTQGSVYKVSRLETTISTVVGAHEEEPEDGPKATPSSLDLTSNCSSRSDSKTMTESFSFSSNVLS
Particulars: human tissues; cited from earlier work.

Experiment [4] concerns the target T2, NK-1 receptor (Rattus norvegicus, UniProt P14600).
T2 construct: pA2>6.0 both in murine and human tissues; host or cells: rat ('murine') tissues (not specified)
Particulars: rat tissues; cited from earlier work.

Where no end group is shown, it is not given here.

T2 sequence (P14600 whole entry): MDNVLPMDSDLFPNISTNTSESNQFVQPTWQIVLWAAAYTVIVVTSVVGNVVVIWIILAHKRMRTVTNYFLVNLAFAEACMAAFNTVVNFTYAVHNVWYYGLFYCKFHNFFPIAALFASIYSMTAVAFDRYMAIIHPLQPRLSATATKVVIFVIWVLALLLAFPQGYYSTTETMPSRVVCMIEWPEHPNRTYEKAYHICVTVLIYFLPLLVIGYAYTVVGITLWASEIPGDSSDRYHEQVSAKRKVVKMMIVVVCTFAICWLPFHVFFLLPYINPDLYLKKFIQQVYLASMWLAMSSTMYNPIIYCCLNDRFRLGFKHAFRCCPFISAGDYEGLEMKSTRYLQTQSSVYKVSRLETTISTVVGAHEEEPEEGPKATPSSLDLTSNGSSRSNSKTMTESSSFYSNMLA

Regarding `Ic1ccccc1CN[C@@H]1C2CCN(CC2)[C@@H]1C(c1ccccc1)c1ccccc1` (racemic) [L-703,606], in experiment [1], the “CD 31 values (blood vessels density)” value was “statistically significant reduction”. Further, in experiment [2], the tumoral mass weight entry is on record as “statistically significant reduction”.
As to `Cc1cc(C)cc(C(=O)N2CC[C@H](NCCc3ccccc3)C[C@H]2Cc2ccccc2)c1` [CGP 47899], at NK-1 receptor [3], the pA2 human was over 6.0. Besides, the pA2 rat at NK-1 receptor [4] is on record as over 6.0.
In the case of `COc1ccccc1CN[C@H]1C2CCN(CC2)[C@H]1C(c1ccccc1)c1ccccc1` [CP 96345], on NK-1 receptor [3], the pA2 human is 9.5. For the same compound, at NK-1 receptor [4], the pA2 rat is on record as 6.8.
Consider `COc1ccccc1CN[C@H]1CCCN[C@H]1c1ccccc1` [CP 99994], for which the pA2 human at NK-1 receptor [3] is recorded as 8.9. The pA2 rat on NK-1 receptor [4] was 6.1.
Take `CN(Cc1ccccc1)C(=O)[C@H](Cc1ccc2ccccc2c1)NC(=O)[C@@H]1C[C@@H](O)CN1C(=O)c1cn(C)c2ccccc12` [FK 888]: on NK-1 receptor [3], the pA2 human is recorded as 9.1. Further, the pA2 rat on NK-1 receptor [4] is on record as 6.0.
Take `COc1ccc(-n2nnnc2C(F)(F)F)cc1CN[C@H]1CCCN[C@H]1c1ccccc1` [GR 205171]: the pA2 human on NK-1 receptor [3] is recorded as over 6.0. In addition, the pA2 rat at NK-1 receptor [4] was over 6.0.
Consider `Cc1ccc(CC(=O)N(C)[C@H](Cc2ccc3ccccc3c2)C(=O)N[C@@H]2CCCC[C@@H]2NC(=O)c2c[nH]c3ccccc23)cc1` [MEN 11467], for which the pA2 human on NK-1 receptor [3] is recorded as over 6.0. For the same compound, on NK-1 receptor [4], the pA2 rat was over 6.0.
Consider `COc1ccccc1CC(=N)N1C[C@@H]2C(=O)CCC(c3ccccc3)(c3ccccc3)[C@@H]2C1` [RP 67580], for which, at NK-1 receptor [3], the pA2 human is reported as 7.2. Also, the pA2 rat at NK-1 receptor [4] is 8.2.
With `CC(C)Oc1cccc(CC(=O)N2CCC[C@](CC[N+]34CCC(c5ccccc5)(CC3)CC4)(c3ccc(Cl)c(Cl)c3)C2)c1` [SR 140333], at NK-1 receptor [3], the pA2 human is on record as 9.8. Also, the pA2 rat at NK-1 receptor [4] is 7.4.
In the case of “substance P (RPKPQQFFGLM; ends and bridges not checked; UniProt P20366 58-68, looked up) [SP, substance P (SP), plays a role in angiogenesis stimulation]”, in experiment [1], the “CD 31 values (blood vessels density)” value was “statistically significant increase”.
